From patent publication US8722729B2, “Unsaturated fatty acid monoesters and diesters on ascorbic acid and cosmetic uses thereof” (Pierre Fabre Dermo-Cosmetique, priority 2009, dated 2014) come the findings set out here.

Molecules are shown by their SMILES. Entries after “also recorded” stand apart in the source; their conditions may differ. Marks after values point to notes of the source that are not given here.

In experiment [1] the target is T1, hyaluronidase of bovine origin (BTH, Bovine Testis hyaluronidase) (Bos taurus, UniProt Q2YDK3).
T1 sequence (Q2YDK3 1-553): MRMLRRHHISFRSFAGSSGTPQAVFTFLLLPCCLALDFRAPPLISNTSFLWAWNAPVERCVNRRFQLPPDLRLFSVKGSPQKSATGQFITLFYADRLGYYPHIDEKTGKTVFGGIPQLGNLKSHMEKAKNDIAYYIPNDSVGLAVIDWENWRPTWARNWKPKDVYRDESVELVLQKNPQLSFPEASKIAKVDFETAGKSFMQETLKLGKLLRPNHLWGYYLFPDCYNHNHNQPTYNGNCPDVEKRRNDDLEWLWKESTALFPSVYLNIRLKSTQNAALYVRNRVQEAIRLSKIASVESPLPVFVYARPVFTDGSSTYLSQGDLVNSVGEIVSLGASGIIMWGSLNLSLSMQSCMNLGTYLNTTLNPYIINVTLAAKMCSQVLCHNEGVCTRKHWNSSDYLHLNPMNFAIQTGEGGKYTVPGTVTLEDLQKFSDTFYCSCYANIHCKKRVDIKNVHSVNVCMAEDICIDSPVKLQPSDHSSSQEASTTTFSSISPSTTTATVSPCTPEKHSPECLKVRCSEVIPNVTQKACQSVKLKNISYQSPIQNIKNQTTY
The experiment is described as follows: Assay of hyaluronidase activity (residual HA, HA-ELISA). It is filed as biochemical. The method, then:
Hyaluronidase activity is measured by the assay of residual hyaluronic acid (HA). The substrate is fixed to a carrier then placed in the presence of an enzyme and a quantity of compound to be tested. The residual HA i.e. the non-hydrolyzed HA is assayed using a HA-Elisa detection system: Hyaluronan enzyme-linked immunosorbent assay (Echelon Biosciences®).
0.5 units of hyaluronidase of bovine origin (BTH, Bovine Testis hyaluronidase) were pre-incubated at 37° C. with the compound to be tested. This mixture was deposited on the HA fixed to the surface of a microplate well. The enzymatic reaction took place at pH 7.2n at 37° C. Washing was followed by a recognition step of residual HA by hyaluronectin (NH). The quantity of bonded NH was measured by ELISA using an anti-NH antibody conjugated with alkaline phosphatase. The p-nitrophenyl phosphate disodium salt (pnNpp) substrate of the phosphatase allows spectrometric detection at 405 nm. (Delpech B et al., Analytical Biochemistry 149, 555(565 (1985); Robert Stern et al. Analytical Biochemistry 251, 263-269 (1997)). OD intensity was correlated with the quantity of residual HA. The quantity of residual HA is directly linked to enzymatic activity. In the presence of an inhibitor, the larger the quantity of residual HA the more the sample is inhibiting. A percentage inhibition of hyaluronidase will be expressed.
Therefore the net enzymatic activities were calculated which represent the difference in mean gross activity without enzyme and the gross activity of the enzyme with or without the compound to be tested.
The percentage enzymatic inhibition related to the compound to be tested was calculated as follows: % inhibition=(Maximum net enzymatic activity)−Net enzymatic activity in the presence of the compound to be tested)/Maximum net enzymatic activity.
where the maximum net enzymatic activity represents the mean net enzymatic activity of 0.5 U.

Another experiment deals with IL-8. The experiment is described as follows: Gene expression of IL8 in human dermal fibroblasts treated with H2O2 (real-time PCR). It is filed as cell-based. To be noted: for RQ (relative quantity of mRNA) IL-8 / % Inhibition of the level of mRNA expression IL-8: 3 μM; for RQ (relative quantity of mRNA) IL-8: senescent fibroblasts stimulated with H2O2, non-treated control = 1; for % Inhibition of the level of mRNA expression IL-8: vs H2O2 alone. As to the method: To evidence the activity of the compounds of general formula (I) against skin ageing and against inflammation, the effect of these compounds was measured on the gene expression of MMP-1, MMP-3 and IL8 in human dermal fibroblasts treated with H2O2, thereby mimicking the process of cellular senescence. The effect of these compounds of general formula (I) was also measured on the synthesis of hyaluronic acid and on hyaluronidase activity. The stimulation of the synthesis of hyaluronic acid also allows skin hydration to be improved and/or restored (Bissett D L. J. Cosmet. Dermatol. 2006 Dec. 5(4): 309-15. Glucosamine: an ingredient with skin and other benefits).
Human dermal fibroblasts (isolated from discarded operative skin) were cultured in DMEM culture medium+10% FCS. The cells were pre-treated with vitamin C and the compound to be tested for 16 h at 37° C. and then stimulated with H2O2. The cells were then replaced in DMEM with vitamin C and dioctadeca-9,12-dienoate of (9Z,9′Z,12Z,12′Z)-2-(2,2-dimethyl-1,3-dioxolan-4-yl)-5-oxo-2,5-dihydrofuran-3,4-diyl. 72 hours after ending of stress, the fibroblasts entered into senescence: the senescent fibroblasts no longer proliferate but remain metabolically active (Hayflick, J. Invest. Dermatol., 73; 8-14, 1979). The cells were then lysed with the lysis buffer of the RNeasy® kit (QIAGEN).
The extracted RNAs were converted to complementary DNA following the indications of the Quantitect Reverse Transcription kit by Qiagen. Real-time PCR analyses were conducted using an iQ cycler fluorescence thermocycler (BIO-RAD).
The level of expression of the mRNAs coding for MMP-1, MMP-3, IL8 was analyzed using the real-time PCR technique. To normalize the level of expression of the gene of interest, the analysis strategy developed by Vandesompela et al., Genome Biol. 3: RESEARCH0034 (2002) was chosen. […] In our model, the three tested reference genes were the following: β-actin (Human β-actin), GAPDH (Human glyceraldehyde-3-phosphate dehydrogenase) and YWHAZ (Tyrosine-3-monooxygenase, tryptopgan-5-monooxygenase activation protein zeta polypeptide).
The first step normalizes the Ct values obtained for the gene of interest in relation to the Ct values obtained for the reference gene, for each experimental condition.
The following was therefore calculated: ΔCt=Ctgene of interest−Ctreference gene
The second step of the calculation determines the variation in the number of copies of the gene of interest during treatment. To do so ΔΔCt is calculated: ΔΔCt=ΔCtnon-treated NHF−ΔCttreated NHF
For the non-treated control, this QR is therefore equal to 1. It is then possible to calculate an induction or inhibition factor of the gene of interest compared with this control.
Statistical analysis was performed using a test called “one-way ANOVA”. Variance analysis using the Dunnett test then allows the comparing, for each of the analyzed genes, of the ΔCt values of normal adult fibroblasts with the compounds in the presence of H2O2 in both cases. This test then gives the “p value” characterizing the significance of the results obtained for both conditions The degree of significance was established as follows: • significant for p<0.05(*) • very significant for p<0.005(**) • highly significant for p<0.001(***) • non-significant for p>0.05. […]
It is also possible to calculate percentage inhibition of the level of expression of the different mRNAs by the active ingredients to be evaluated, using the formula: […]

[2] abbreviates: 0.5 U BTH, read-out: Enzymatic inhibition (mean as a percentage).

Turning to `O=C1O[C@H]([C@@H](O)CO)C(O)=C1O` [Ascorbic acid, ascorbic acid], the “Effect on hyaluronidase” value in experiment [1] is “no effect”. Also, in experiment [1] (setting [2]), the inhibition at 100 µM is 1% and the inhibition at 500 µM was found to be 4%. Also, in the experiment on IL-8, the “RQ (relative quantity of mRNA) IL-8” value was determined as 1.2 and the “% Inhibition of the level of mRNA expression IL-8” value is 92*** %.
Take `CCCCC/C=C\C/C=C\CCCCCCCC(=O)OC1=C(OC(=O)CCCCCCC/C=C\C/C=C\CCCCC)C(C2COC(C)(C)O2)OC1=O` (centres unmarked) [Molecule 1, diactodeca-9,12-dienoate of (9Z,9′Z,12Z,12′Z)-2-(2,2-dimethyl-1,3-dioxolan-4-yl)-5-oxo-2,5-dihydrofuran-3,4-diyl]: in experiment [1], the “Effect on hyaluronidase” value is “strongly inhibit hyaluronidase; also recorded: equivalent to or more active than ascorbyl palmitate”. In experiment [1] (5 μM, 0.5 U BTH, read-out: Enzymatic inhibition (mean as a percentage)), the inhibition at 5 µM came out at 14%. For the same compound, in experiment [1] (10 μM, 0.5 U BTH, read-out: Enzymatic inhibition (mean as a percentage)), the inhibition at 10 µM was 21%. Besides, the inhibition at 20 µM in experiment [1] (20 μM, 0.5 U BTH, read-out: Enzymatic inhibition (mean as a percentage)) came to 44%. Moreover, the inhibition at 25 µM in experiment [1] (25 μM, 0.5 U BTH, read-out: Enzymatic inhibition (mean as a percentage)) came out at 46%. The inhibition at 30 µM in experiment [1] (30 μM, 0.5 U BTH, read-out: Enzymatic inhibition (mean as a percentage)) is 66%. In addition, in experiment [1] (40 μM, 0.5 U BTH, read-out: Enzymatic inhibition (mean as a percentage)), the inhibition at 40 µM is 86%. In addition, the inhibition at 50 µM in experiment [1] (50 μM, 0.5 U BTH, read-out: Enzymatic inhibition (mean as a percentage)) came to 76%. For the same compound, in experiment [1] (setting [2]), the inhibition at 100 µM was determined as 113% and the inhibition at 500 µM was 122%. Further, the inhibition at 250 µM in experiment [1] (250 μM, 0.5 U BTH, read-out: Enzymatic inhibition (mean as a percentage)) was 119%. Besides, the IC50 in experiment [1] (in the region of) fell in the range of 25 to 30 µM. For the same compound, in the experiment on IL-8, the “Inhibition of IL-8 expression compared with ascorbic acid” value was “more substantially inhibits the expression of MMP1, MMP3 and IL-8 than ascorbic acid”; the “RQ (relative quantity of mRNA) IL-8” value turned out to be 0.9; the “% Inhibition of the level of mRNA expression IL-8” value is listed as 102*** %.
